The test system of this data set is Chemostat Inoculum (bacteria cocktail with A. viscosus, S. oralis, V. parvula, L. casei, and F. nucleatum). Kind of data set: Resazurin anti-bacterial test (bacterial viability microassay). Particulars: 1 hr incubation with test solution 1:1 in 1/4 strength trypticase soy broth, average of runs over 4-5 days, concentration as in toothpaste formula. It counts as cell-based. The procedure:
The core shell silica (CSS) particles of the invention were testing for anti-bacterial activity using the resazurin anti-bacterial test assay wherein the reduction of resazurin is a measure of reduction of bacterial growth.
All solutions are measured for the bacterial viability using resazurin microassay with Chemostat Inoculum (bacteria cocktail with A. viscosus, S. oralis, V. parvula, L. casei, and F. nucleatum) used in oral care product evaluation. Resazurin (7-Hydroxy-3H-phenoxazin-3-one 10-oxide) is a blue dye used as oxidation—reduction reaction, quantifies bacterial viability from color perception with respiring reaction effect.
Each experiment is conducted with live and dead bacterial cocktail with A. viscosus, S. oralis, V. parvula, L. casei, and F. nucleatum using TSB broth (trypticase soy broth) and ethanol respectively and they were added at proper ratio to generate standard curve from 100% live bacterial cocktail to 100% dead bacterial cocktail collecting at a total of 12 points.
The assay is performed using bacteria pellet from 1 ml Chemostat Inoculum and exposed with 1/4 strength trypticase soy broth: test solution at 1:1 ratio in Eppendorf tube. After 1 hr incubation further bacteria growth was deactivated adding 1 ml D/E Broth with proper mixing and collected pellet was rinsed with 1 ml TSB broth to remove D/E broth completely (D/E=Dey-Engley). […]

Molecules are shown by their SMILES.

Consider `[Cl-].[Cl-].[Zn+2]` [Positive control (1% ZnCl2 + water), zinc chloride], for which the “% of viable bacteria” value was 4.88%.

For the origin of these results see patent US12324848B2, “Core shell silica particles and uses thereof as an anti-bacterial agent” (Colgate-Palmolive Company, priority 2013, dated 2025).
